This is an account of results in ChEMBL document CHEMBL3124779, “Discovery of ABT-267, a pan-genotypic inhibitor of HCV NS5A” (J Med Chem, 2014).

Values after ≈ are worked out from the molar mass of the structure shown.

Data set [1] relates to Hepatitis C virus. The data set can be described thus: Antiviral activity against HCV genotype 1 infected in human assessed as cure rate. Type of data set: functional, Hepacivirus hominis.
Data set [2] in a line: Metabolic stability in human liver microsomes assessed as compound remaining after 30 mins. Type of data set: ADME. As to conditions: read-out: Stability. (In general: Liver microsomes are vesicles of endoplasmic reticulum, rich in cytochrome P450 enzymes.)
A short description of data set [3]: Clearance in monkey at 1 mg/kg, iv. It counts as ADME, organism-based, Macaca mulatta. On the set-up: dose 1 mg/kg, route intravenous. As to conditions: rhesus monkey, in vivo.
Data set [4] can be described thus: AUC in dog at 2.5 mg/kg, po. Type of data set: ADME, organism-based, Canis lupus familiaris. Also on record: dose 2.5 mg/kg, route oral. As to conditions: plasma.
Data set [5] can be described thus: Oral bioavailability in rat at 3 mg/kg. Type of data set: ADME, organism-based. As to conditions: in vivo.
Data set [6] is described as follows: Tmax in monkey at 2.5 mg/kg, po. On the set-up: dose 2.5 mg/kg, route oral. Type of data set: ADME, organism-based, Macaca mulatta. As to conditions: rhesus monkey, in vivo.
The nature of data set [7]: Half life in rat at 3 mg/kg, po. Type of data set: ADME, organism-based. On the set-up: dose 3 mg/kg, route oral. As to conditions: in vivo.
A short description of data set [8]: Oral bioavailability in monkey at 2.5 mg/kg. It counts as ADME, organism-based, Macaca mulatta. The settings on record: rhesus monkey, in vivo.
A short description of data set [9]: Volume of distribution at steady state in dog at 1 mg/kg, iv. On the set-up: dose 1 mg/kg, route intravenous. The settings on record: in vivo, read-out: Vdss. It counts as ADME, organism-based, Canis lupus familiaris.
A short description of data set [10]: Half life in dog at 1 mg/kg, iv. It counts as ADME, organism-based, Canis lupus familiaris. Also on record: dose 1 mg/kg, route intravenous. As to conditions: in vivo.
Data set [11] is described as follows: Oral bioavailability in dog at 2.5 mg/kg. As to conditions: in vivo. It counts as ADME, organism-based, Canis lupus familiaris.
Data set [12] in a line: Half life in monkey at 2.5 mg/kg, po. It counts as ADME, organism-based, Macaca mulatta. On the set-up: dose 2.5 mg/kg, route oral. As to conditions: rhesus monkey, in vivo.
The nature of data set [13]: Cmax in rat at 3 mg/kg, po. Type of data set: ADME, organism-based. Also on record: dose 3 mg/kg, route oral. As to conditions: in vivo.
In data set [14] the test system is Hepatitis C virus. The data set can be described thus: Antiviral activity against HCV1a H77 infected in human HuH7 cells assessed as inhibition of viral replication after 4 days by luciferase reporter gene assay in presence of 40% human plasma. Type of data set: functional, organism-based, Hepacivirus hominis. The settings on record: genotype 1a H77, Huh-7, Plasma, 96 h. For orientation: In a reporter assay the amount or activity of a reporter protein is the signal.

The nature of data set [15]: Clearance in dog at 1 mg/kg, iv. It counts as ADME, organism-based, Canis lupus familiaris. Also on record: dose 1 mg/kg, route intravenous. As to conditions: in vivo.
Data set [16] is described as follows: Metabolic stability in rat liver microsomes assessed as compound remaining after 30 mins. Type of data set: ADME. As to conditions: read-out: Stability.
The nature of data set [17]: Kinetic solubility of the compound in 10 mM of phosphate buffer at pH 7.2 by CLND method. As to conditions: read-out: Kinetic_solubility. Type of data set: physicochemical.
For data set [18], the system named is Hepatitis C virus. The data set can be described thus: Ratio of EC50 for HCV1b Con1 infected in human HuH7 cells in presence of 40% human plasma to EC50 for HCV1b Con1 infected in human HuH7 cells in absence of 40% human plasma. Type of data set: functional, Hepacivirus hominis, isolate Con1, Huh-7.
A short description of data set [19]: Half life in rat at 3 mg/kg, iv. On the set-up: dose 3 mg/kg, route intravenous. As to conditions: in vivo. It counts as ADME, organism-based.
Data set [20] can be described thus: Cmax in monkey at 2.5 mg/kg, po. Type of data set: ADME, organism-based, Macaca mulatta. As to conditions: rhesus monkey, in vivo. Also on record: dose 2.5 mg/kg, route oral.
A short description of data set [21]: Tmax in dog at 2.5 mg/kg, po. As to conditions: in vivo. On the set-up: dose 2.5 mg/kg, route oral. It counts as ADME, organism-based, Canis lupus familiaris.
Data set [22] in a line: Half life in dog at 2.5 mg/kg, po. It counts as ADME, organism-based, Canis lupus familiaris. On the set-up: dose 2.5 mg/kg, route oral. The settings on record: in vivo.
The test system of data set [23] is Hepatitis C virus. The data set can be described thus: Antiviral activity against HCV1b Con1 infected in human HuH7 cells assessed as inhibition of viral replication after 4 days by luciferase reporter gene assay in presence of 40% human plasma. It counts as functional, organism-based, Hepacivirus hominis. The settings on record: isolate Con1, Huh-7, Plasma, 96 h.

Data set [24] in a line: Tmax in rat at 3 mg/kg, po. As to conditions: in vivo. Type of data set: ADME, organism-based. On the set-up: dose 3 mg/kg, route oral.
Data set [25] has as its system Hepatitis C virus. Put plainly: Ratio of EC50 for HCV1a H77 infected in human HuH7 cells in presence of 40% human plasma to EC50 for HCV1a H77 infected in human HuH7 cells in absence of 40% human plasma. Type of data set: functional, Hepacivirus hominis, genotype 1a H77, Huh-7.
The nature of data set [26]: Cmax in dog at 2.5 mg/kg, po. It counts as ADME, organism-based, Canis lupus familiaris. On the set-up: dose 2.5 mg/kg, route oral. The settings on record: in vivo.
The nature of data set [27]: Half life in monkey at 1 mg/kg, iv. Type of data set: ADME, organism-based, Macaca mulatta. On the set-up: dose 1 mg/kg, route intravenous. As to conditions: rhesus monkey, in vivo.
A short description of data set [28]: AUC in rat at 3 mg/kg, po. It counts as ADME, organism-based. On the set-up: dose 3 mg/kg, route oral. The settings on record: plasma.
The nature of data set [29]: Volume of distribution at steady state in monkey at 1 mg/kg, iv. It counts as ADME, organism-based, Macaca mulatta. Also on record: dose 1 mg/kg, route intravenous. As to conditions: rhesus monkey, in vivo, read-out: Vdss.
Data set [30] relates to Hepatitis C virus. The data set can be described thus: Antiviral activity against HCV1a H77 infected in human HuH7 cells assessed as inhibition of viral replication after 4 days by luciferase reporter gene assay. As to conditions: genotype 1a H77, Huh-7, 96 h. Type of data set: functional, organism-based, Hepacivirus hominis.
Data set [31] in a line: Volume of distribution at steady state in rat at 3 mg/kg, iv. Type of data set: ADME, organism-based. On the set-up: dose 3 mg/kg, route intravenous. As to conditions: in vivo, read-out: Vdss.
Data set [32] deals with Hepatitis C virus. Put plainly: Antiviral activity against HCV1b Con1 infected in human HuH7 cells assessed as inhibition of viral replication after 4 days by luciferase reporter gene assay. The settings on record: isolate Con1, Huh-7, 96 h. It counts as functional, organism-based, Hepacivirus hominis.
The nature of data set [33]: Lipophilicity, log D of the compound at pH 7.4 by HPLC analysis. It counts as physicochemical. The settings on record: buffer.
Data set [34] can be described thus: AUC in monkey at 2.5 mg/kg, po. Type of data set: ADME, organism-based, Macaca mulatta. Also on record: dose 2.5 mg/kg, route oral. As to conditions: rhesus monkey, plasma.
A short description of data set [35]: Clearance in rat at 3 mg/kg, iv. It counts as ADME, organism-based. On the set-up: dose 3 mg/kg, route intravenous. The settings on record: in vivo.

`CCC[C@H](NC(=O)[C@@H]1[C@H]2CCC[C@H]2CN1C(=O)[C@@H](NC(=O)[C@@H](NC(=O)c1cnccn1)C1CCCCC1)C(C)(C)C)C(=O)C(=O)NC1CC1`: the Activity result with Hepatitis C virus [1] is “<=75%”.

By clearance is commonly meant the rate of elimination divided by the concentration. A word on the AUC: it is concentration integrated over time. A word on the bioavailability: it is the share of a dose that reaches the circulation, judged against a reference dose that is usually intravenous. For orientation: Tmax means the time from dosing to the highest level. Usually half-life stands for how long it takes for the measured level to halve. Broadly, the Cmax is the highest concentration seen after dosing. The EC50 is the concentration needed to bring the measured effect to its halfway point. Usually logD stands for the decadic logarithm of the distribution of all forms, ionised or not, between an organic phase and buffer at a given pH. `COC(=O)N[C@H](C(=O)N1CCC[C@H]1C(=O)Nc1ccc([C@H]2CC[C@H](c3ccc(NC(=O)[C@@H]4CCCN4C(=O)[C@@H](NC(=O)OC)C(C)(C)C)cc3)N2c2ccc(F)cc2)cc1)C(C)(C)C`: the remaining at 0.5 h in [2] came to 54%; in [16] it was 69%. For the same compound, the clearance in data set [3] was 15.5 mL/min/kg; in data set [15], 2.17 mL/min/kg; in data set [35], 1.67 mL/min/kg. Moreover, the AUC stood at 18300 ng·h/mL in data set [4], 10200 ng·h/mL in [28] and 490 ng·h/mL in data set [34]. For the same compound, the bioavailability in data set [5] was found to be 39%; in data set [8], 18%; in data set [11], 94%. Besides, the Tmax came to 1.7 h in [6], 2.7 h in data set [21] and 2.3 h in data set [24]. The half-life in data set [7] was 420 min; in [10], 546 min; in data set [12], 324 min; in data set [19], 450 min; in [22] it was 618 min; in [27], 276 min. Also, the values for the Vd in [9], in data set [29] and in [31] were 1.6 L/kg, 4.1 L/kg and 1 L/kg, respectively. In addition, the Cmax came out at 960 ng/mL in data set [13], 120 ng/mL in data set [20] and 1070 ng/mL in data set [26]. In addition, the EC50 in the data set on Hepatitis C virus [14] was determined as 20.8 nM; with Hepatitis C virus [23], 0.162 nM; in the data set with Hepatitis C virus [30] it was 1.18 nM; in the data set on Hepatitis C virus [32], 0.008 nM. In data set [17], the solubility kinetic was 3.9 µM (≈ 3.45 µg/mL). In addition, the “Ratio EC50” value in the data set with Hepatitis C virus [18] amounted to 20; with Hepatitis C virus [25], 18. The logD in data set [33] was 5.2.

As to `COC(=O)N[C@H](C(=O)N1CCC[C@H]1C(=O)Nc1ccc([C@H]2CC[C@H](c3ccc(NC(=O)[C@@H]4CCCN4C(=O)[C@@H](NC(=O)OC)C(C)C)cc3)N2c2ccc(F)cc2)cc1)C(C)C`, the remaining at 0.5 h in data set [2] and in data set [16] was 38% each time. Also, the figures for the clearance in data set [3], in data set [15] and in data set [35] were 51.7 mL/min/kg, 21.7 mL/min/kg and 2.17 mL/min/kg, respectively. Further, the AUC was 1280 ng·h/mL in data set [4], 6360 ng·h/mL in data set [28] and 80 ng·h/mL in data set [34]. Besides, the figures for the bioavailability in data set [5], in data set [8] and in data set [11] were 22%, 10% and 62%, respectively. Also, the Tmax in data set [6] was 1.5 h; in [21] it was 1.2 h; in [24], 1.3 h. Further, the half-life in [7] is 168 min; in [10], 120 min; in [12], 36 min; in data set [19], 198 min; in data set [22], 132 min; in data set [27], 48 min. In addition, the Vd in data set [9] is 1.9 L/kg; in data set [29], 1.5 L/kg; in data set [31], 0.5 L/kg. Also, the Cmax in data set [13] came out at 1380 ng/mL; in data set [20], 50 ng/mL; in data set [26] it was 420 ng/mL. In addition, the EC50 with Hepatitis C virus [14] was 11.1 nM; with Hepatitis C virus [23] it was 0.208 nM; in the data set on Hepatitis C virus [30], 2.53 nM; in the data set on Hepatitis C virus [32], 0.042 nM. Moreover, the solubility kinetic in data set [17] came to 6 µM (≈ 5.14 µg/mL). Further, the “Ratio EC50” value with Hepatitis C virus [18] was determined as 5; with Hepatitis C virus [25], 4. The same compound came in with a logD in data set [33] of 4.6.

On to `CC(C)(C)NC(=O)N[C@H](C(=O)N1C[C@H]2[C@@H]([C@H]1C(=O)NC(CC1CCC1)C(=O)C(N)=O)C2(C)C)C(C)(C)C` (stereo not given in full) [BOCEPREVIR], for which the Activity entry with Hepatitis C virus [1] was “<=75%”.
